Assay results reported in patent US10577332B2, “Tetrazole derivatives” (Hoffmann-La Roche Inc., priority 2015, dated 2020).

How the values were obtained:
human EAAT3 = biological target: T1, human EAAT3 (Homo sapiens, UniProt P43005); test: FLIPR Membrane Potential (FMP) assay; format: cell-based; settings: HEK-293 cells stably expressing human EAAT3; antagonist applied 15 min before L-glutamate at EC80; Kb by Cheng-Prusoff from IC50
T1 construct: expressed in transfected cells
T1 sequence (P43005 1-524): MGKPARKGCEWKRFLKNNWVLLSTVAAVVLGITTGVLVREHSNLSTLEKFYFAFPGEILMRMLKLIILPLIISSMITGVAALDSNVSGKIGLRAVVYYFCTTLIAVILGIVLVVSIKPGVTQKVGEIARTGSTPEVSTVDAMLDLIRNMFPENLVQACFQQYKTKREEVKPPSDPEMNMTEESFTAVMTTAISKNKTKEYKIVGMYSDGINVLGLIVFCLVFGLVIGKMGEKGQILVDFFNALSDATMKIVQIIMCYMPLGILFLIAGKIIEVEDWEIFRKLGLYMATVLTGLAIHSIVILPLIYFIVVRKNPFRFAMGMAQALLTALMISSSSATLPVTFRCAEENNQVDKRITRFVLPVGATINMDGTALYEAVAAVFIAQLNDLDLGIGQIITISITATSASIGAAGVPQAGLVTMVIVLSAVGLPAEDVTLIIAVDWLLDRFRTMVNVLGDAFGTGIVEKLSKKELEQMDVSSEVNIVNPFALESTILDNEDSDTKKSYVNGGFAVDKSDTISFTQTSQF
Method: The FLIPR Membrane Potential (FMP) Assay
HEK-293 cells stably expressing human EAAT3 were seeded at 55 000 cells/well in growth medium (DMEM glutamate free (Invitrogen 11960-044), 1% Pen Strep (10 ml/l GIBCO BRL No 15140-023), 10% FCS non dialysed heat inactivated, 5 mg/l puromycin) in poly-D-lysine treated 96-well black microtiter plates with clear-bottom. After 24 h, the growth medium was removed and 100 μl/well of Krebs buffer (140 mM NaCl, 4.7 mM KCl, 2.5 mM CaCl2, 1.2 mM MgCl2, 11 mM HEPES, 10 mM D-glucose, pH=7.4) added. The cells were then loaded by adding 100 μl/well FMP assay dye (FLIPR Membrane Potential assay reagent, Molecular Devices). The 96-well plates were then incubated at 37° C. for 1 h. The depolarization of the cells will cause more dye to enter in the cells, where it will bind to intracellular proteins and lipids and cause an increase in the fluorescence signal. Antagonist potency at human EAAT3 was determined by using L-glutamate as agonist at a concentration which gives 80% of the maximum response. The antagonists were applied 15 min before the application of the agonist L-glutamate. The assays were performed at room temperature and measurements done by using a Fluorometric Imaging Plate Reader (FLIPR, Molecular Devices) and filter #2. Responses were measured as peak increase in fluorescence minus basal (i.e. fluorescence without addition of L-glutamate). Kb was determined using the Cheng-Prusoff equation Kb=IC50/[1+(A/EC50)], where IC50 is the concentration of the antagonist producing 50% inhibition, A is the concentration of the agonist against which the IC50 is being determined (at EC80) and EC50 is the concentration of the agonist producing 50% […].

| melting point [°C] | Kb (human EAAT3) [µM] | Compound |
| --- | --- | --- |
| 92 | 0.27 | CC(C)c1nnnn1-c1cc(C(=O)NC(C)(C)C)cc(-c2ccc(C(F)(F)F)cc2)c1 [Example 47, N-tert-Butyl-3-(5-propan-2-yltetrazol-1-yl)-5-[4-(trifluoromethyl)-phenyl]-benzamide] |
| 90 | 0.42 | CC(C)c1nnnn1-c1cc(C(=O)NC(C)(C)C2CC2)cc(-c2ccc(C(F)(F)F)cc2)c1 [Example 48, N-(2-Cyclopropylpropan-2-yl)-3-(5-propan-2-yltetrazol-1-yl)-5-[4-(trifluoromethyl)phenyl]benzamide] |
| 90 | 0.34 | CC(C)c1nnnn1-c1cc(C(=O)NC(C)(C)C(F)(F)F)cc(-c2ccc(Cl)cc2)c1 [Example 52, 3-(4-Chlorophenyl)-5-(5-propan-2-yltetrazol-1-yl)-N-(1,1,1-trifluoro-2-methylpropan-2-yl)-benzamide] |
| 91 | 0.48 | CC(C)c1nnnn1-c1cc(C(=O)NC(C)(C)C(F)(F)F)cc(-c2ccc(C(F)(F)F)cc2)c1 [Example 53, 3-(5-Propan-2-yltetrazol-1-yl)-5-[4-(trifluoromethyl)-phenyl]-N-(1,1,1-trifluoro-2-methylpropan-2-yl)-benzamide] |
| 91.5 | 0.21 | CC(C)(NC(=O)c1cc(-c2ccc(Cl)cc2)cc(-n2nnnc2C2CC2)c1)C(F)(F)F [Example 54, 3-(4-Chlorophenyl)-5-(5-cyclopropyltetrazol-1-yl)-N-(1,1,1-trifluoro-2-methylpropan-2-yl)-benzamide] |
| 78 | 0.48 | CCC(C)(C)NC(=O)c1cc(-c2ccc(Cl)cc2)cc(-n2nnnc2C2CC2)c1 [Example 55, 3-(4-Chlorophenyl)-5-(5-cyclopropyltetrazol-1-yl)-N-(2-methylbutan-2-yl)-benzamide] |
| 90 | 0.18 | CC(C)(C)NC(=O)c1cc(-c2ccc(Cl)cc2)cc(-n2nnnc2C2CC2)c1 [Example 56, N-tert-Butyl-3-(4-chlorophenyl)-5-(5-cyclopropyltetrazol-1-yl)-benzamide] |
| 110 | 0.36 | CC(C)(CO)NC(=O)c1cc(-c2ccc(Cl)cc2)cc(-n2nnnc2C2CC2)c1 [Example 58, 3-(4-Chlorophenyl)-5-(5-cyclopropyltetrazol-1-yl)-N-(1-hydroxy-2-methylpropan-2-yl)-benzamide] |
| 80 | 0.31 | CC(C)c1nnnn1-c1cc(C(=O)NC(C)(C)C(F)(F)F)cc(-c2ccc(F)cc2)c1 [Example 59, 3-(4-Fluorophenyl)-5-(5-propan-2-yltetrazol-1-yl)-N-(1,1,1-trifluoro-2-methylpropan-2-yl)-benzamide] |
| 69 | 0.21 | CCC(C)(C)NC(=O)c1cc(-c2ccc(F)cc2)cc(-n2nnnc2C(C)C)c1 [Example 60, 3-(4-Fluorophenyl)-N-(2-methylbutan-2-yl)-5-(5-propan-2-yltetrazol-1-yl)-benzamide] |
| 85 | 0.23 | CC(C)c1nnnn1-c1cc(C(=O)NC(C)(C)C)cc(-c2ccc(F)cc2)c1 [Example 61, N-tert-Butyl-3-(4-fluorophenyl)-5-(5-propan-2-yltetrazol-1-yl)-benzamide] |
| 86.5 | 0.55 | CC(C)c1nnnn1-c1cc(C(=O)NC(C)(C)CO)cc(-c2ccc(F)cc2)c1 [Example 62, 3-(4-Fluorophenyl)-N-(1-hydroxy-2-methylpropan-2-yl)-5-(5-propan-2-yltetrazol-1-yl)-benzamide] |
| 193 | 0.42 | Cc1nnnn1-c1cc(C(=O)NC(C)(C)CO)cc(-c2ccc(Cl)cc2)c1 [Example 64, 3-(4-Chlorophenyl)-N-(1-hydroxy-2-methylpropan-2-yl)-5-(5-methyl-tetrazol-1-yl)-benzamide] |
| 80.5 | 0.17 | CCC(C)(C)NC(=O)c1cc(-c2ccc(Cl)cc2)cc(-n2nnnc2C)c1 [Example 66, 3-(4-Chlorophenyl)-N-(2-methylbutan-2-yl)-5-(5-methyltetrazol-1-yl)-benzamide] |
| 98 | 0.24 | Cc1nnnn1-c1cc(C(=O)NC(C)(C)C)cc(-c2ccc(Cl)cc2)c1 [Example 67, N-tert-Butyl-3-(4-chlorophenyl)-5-(5-methyltetrazol-1-yl)-benzamide] |
| 74 | 0.18 | CCC(C)(C)NC(=O)c1cc(-c2ccc(F)cc2)cc(-n2nnnc2C2CC2)c1 [Example 68, 3-(5-Cyclopropyltetrazol-1-yl)-5-(4-fluorophenyl)-N-(2-methylbutan-2-yl)-benzamide] |
| 82 | 0.15 | CC(C)(C)NC(=O)c1cc(-c2ccc(F)cc2)cc(-n2nnnc2C2CC2)c1 [Example 69, N-tert-Butyl-3-(5-cyclopropyltetrazol-1-yl)-5-(4-fluorophenyl)-benzamide] |
| 96 | 0.23 | Cc1nnnn1-c1cc(C(=O)NC(C)(C)C(F)(F)F)cc(-c2ccc(Cl)cc2)c1 [Example 70, 3-(4-Chlorophenyl)-5-(5-methyltetrazol-1-yl)-N-(1,1,1-trifluoro-2-methylpropan-2-yl)-benzamide] |
| 80 | 0.41 | CC(C)(CO)NC(=O)c1cc(-c2ccc(F)cc2)cc(-n2nnnc2C2CC2)c1 [Example 71, 3-(5-Cyclopropyltetrazol-1-yl)-5-(4-fluorophenyl)-N-(1-hydroxy-2-methylpropan-2-yl)-benzamide] |
| 73 | 0.38 | CC(C)(NC(=O)c1cc(-c2ccc(F)cc2)cc(-n2nnnc2C2CC2)c1)C1CC1 [Example 72, N-(2-Cyclopropylpropan-2-yl)-3-(5-cyclopropyltetrazol-1-yl)-5-(4-fluorophenyl)-benzamide] |
| 81 | 0.11 | CC(C)(NC(=O)c1cc(-c2ccc(F)cc2)cc(-n2nnnc2C2CC2)c1)C(F)(F)F [Example 73, 3-(5-Cyclopropyltetrazol-1-yl)-5-(4-fluorophenyl)-N-(1,1,1-trifluoro-2-methylpropan-2-yl)-benzamide] |
| 185 | 0.18 | CCC(C)(C)NC(=O)c1cc(-c2ccc(Cl)cc2)cc(-n2nnnc2C(F)(F)F)c1 [Example 74, 3-(4-Chlorophenyl)-N-(2-methylbutan-2-yl)-5-[5-(trifluoromethyl)-tetrazol-1-yl]-benzamide] |
| 186 | 0.11 | CC(C)(C)NC(=O)c1cc(-c2ccc(Cl)cc2)cc(-n2nnnc2C(F)(F)F)c1 [Example 75, N-tert-Butyl-3-(4-chlorophenyl)-5-[5-(trifluoromethyl)-tetrazol-1-yl]-benzamide] |
| 89 | 0.3 | CC(C)(CO)NC(=O)c1cc(-c2ccc(Cl)cc2)cc(-n2nnnc2C(F)(F)F)c1 [Example 76, 3-(4-Chlorophenyl)-N-(1-hydroxy-2-methylpropan-2-yl)-5-[5-(trifluoromethyl)-tetrazol-1-yl]-benzamide] |
| 83 | 0.11 | CCC(C)(C)NC(=O)c1cc(-c2ccc(F)cc2)cc(-n2nnnc2C)c1 [Example 78, 3-(4-Fluorophenyl)-N-(2-methylbutan-2-yl)-5-(5-methyltetrazol-1-yl)-benzamide] |
| 166.5 | 0.2 | CC(C)(NC(=O)c1cc(-c2ccc(Cl)cc2)cc(-n2nnnc2C(F)(F)F)c1)C(F)(F)F [Example 79, 3-(4-Chlorophenyl)-N-(1,1,1-trifluoro-2-methylpropan-2-yl)-5-[5-(trifluoromethyl)tetrazol-1-yl]-benzamide] |
| 80 | 0.18 | Cc1nnnn1-c1cc(C(=O)NC(C)(C)C)cc(-c2ccc(F)cc2)c1 [Example 80, N-tert-Butyl-3-(4-fluorophenyl)-5-(5-methyltetrazol-1-yl)-benzamide] |
